Test results taken from patent US20240300932A1, “N-PHENYLIMINE DERIVATIVE AND PREPARATION METHOD AND USE THEREOF” (Guizhou University, priority 2023, published 2024).

Columns and labels:
Assay in all cases: Post-emergence herbicidal activity test (stem and leaf spray, pot culture)
Type in all cases: in vivo
Conditions in all cases: 3 weeks after spraying
Trifoliumre pensL. = system: Trifoliumre pensL.
Outline: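 Rates of 10, 5 and 2.5 g/mu were applied in a single spray-tower treatment to 2–3-leaf plants, thinned to 10 per pot. Formulation: acetone solution, Tween 80, 1.5 L/ha methyl oleate synergist. Weed response assessed after 3 further greenhouse weeks; mean of three experiments.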

Amaranthus retroflexus = system: Amaranthus retroflexus
Outline: (§1)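 Read-out: fresh weight control rate 3 weeks post-spray, graded 5 (≥85%) down to 0 (<5%). Foliar spray at 2–3-leaf stage; rates 10, 5, 2.5 g/mu; acetone + Tween 80 formulation with methyl oleate synergist; greenhouse 20–30 °C, natural light.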

Portulaca oleracea = system: Portulaca oleracea
Outline: as §1

Setaria viridis = system: Setaria viridis
Outline: as §1

Echinochloa crusgalli = system: Echinochloa crusgalli
Outline: as §1

Abutilon theophrasti = system: Abutilon theophrasti
Outline: as §1

O=C1C2=C(CCCC2)C(=O)N1c1cc(OCc2nnc(-c3cccc(I)c3)o2)c(Cl)cc1F [Compound B11]
Post-emergence herbicidal activity, Trifoliumre pensL. (grade) (Trifoliumre pensL.; dosage 2.5 g/mu): 5 (Grade 5: the growth control rate is greater than or equal to 85%) | Post-emergence herbicidal activity, Trifoliumre pensL. (grade) (Trifoliumre pensL.; dosage 5 g/mu): 5 (Grade 5: the growth control rate is greater than or equal to 85%) | Post-emergence herbicidal activity, Trifoliumre pensL. (grade) (Trifoliumre pensL.; dosage 10 g/mu): 5 (Grade 5: the growth control rate is greater than or equal to 85%) | Post-emergence herbicidal activity, A. retroflexus (grade) (Amaranthus retroflexus; dosage 2.5 g/mu): 4 (Grade 4: the growth control rate is greater than or equal to 60% and less than 85%) | Post-emergence herbicidal activity, A. retroflexus (grade) (Amaranthus retroflexus; dosage 5 g/mu): 5 (Grade 5: the growth control rate is greater than or equal to 85%) | Post-emergence herbicidal activity, A. retroflexus (grade) (Amaranthus retroflexus; dosage 10 g/mu): 5 (Grade 5: the growth control rate is greater than or equal to 85%) | Post-emergence herbicidal activity, P. oleracea (grade) (Portulaca oleracea; dosage 2.5 g/mu): 5 (Grade 5: the growth control rate is greater than or equal to 85%) | Post-emergence herbicidal activity, P. oleracea (grade) (Portulaca oleracea; dosage 5 g/mu): 5 (Grade 5: the growth control rate is greater than or equal to 85%) | Post-emergence herbicidal activity, P. oleracea (grade) (Portulaca oleracea; dosage 10 g/mu): 5 (Grade 5: the growth control rate is greater than or equal to 85%) | Post-emergence herbicidal activity, S. viridis (grade) (Setaria viridis; dosage 2.5 g/mu): 2 (Grade 2: the growth control rate is greater than or equal to 20% and less than 40%) | Post-emergence herbicidal activity, S. viridis (grade) (Setaria viridis; dosage 5 g/mu): 3 (Grade 3: the growth control rate is greater than or equal to 40% and less than 60%) | Post-emergence herbicidal activity, S. viridis (grade) (Setaria viridis; dosage 10 g/mu): 4 (Grade 4: the growth control rate is greater than or equal to 60% and less than 85%) | Post-emergence herbicidal activity, E. crusgalli (grade) (Echinochloa crusgalli; dosage 2.5 g/mu): 1 (Grade 1: the growth control rate is greater than or equal to 5% and less than 20%) | Post-emergence herbicidal activity, E. crusgalli (grade) (Echinochloa crusgalli; dosage 5 g/mu): 2 (Grade 2: the growth control rate is greater than or equal to 20% and less than 40%) | Post-emergence herbicidal activity, E. crusgalli (grade) (Echinochloa crusgalli; dosage 10 g/mu): 3 (Grade 3: the growth control rate is greater than or equal to 40% and less than 60%) | Post-emergence herbicidal activity, A. theophrasti (grade) (Abutilon theophrasti; dosage 2.5 g/mu): 4 (Grade 4: the growth control rate is greater than or equal to 60% and less than 85%) | Post-emergence herbicidal activity, A. theophrasti (grade) (Abutilon theophrasti; dosage 5 g/mu): 5 (Grade 5: the growth control rate is greater than or equal to 85%) | Post-emergence herbicidal activity, A. theophrasti (grade) (Abutilon theophrasti; dosage 10 g/mu): 5 (Grade 5: the growth control rate is greater than or equal to 85%)

O=C1C2=C(CCCC2)C(=O)N1c1cc(OCc2nnc(-c3cccc([N+](=O)[O-])c3)o2)c(Cl)cc1F [Compound B12]
Post-emergence herbicidal activity, Trifoliumre pensL. (grade) (Trifoliumre pensL.; dosage 2.5 g/mu): 5 (Grade 5: the growth control rate is greater than or equal to 85%) | Post-emergence herbicidal activity, Trifoliumre pensL. (grade) (Trifoliumre pensL.; dosage 5 g/mu): 5 (Grade 5: the growth control rate is greater than or equal to 85%) | Post-emergence herbicidal activity, Trifoliumre pensL. (grade) (Trifoliumre pensL.; dosage 10 g/mu): 5 (Grade 5: the growth control rate is greater than or equal to 85%) | Post-emergence herbicidal activity, A. retroflexus (grade) (Amaranthus retroflexus; dosage 2.5 g/mu): 5 (Grade 5: the growth control rate is greater than or equal to 85%) | Post-emergence herbicidal activity, A. retroflexus (grade) (Amaranthus retroflexus; dosage 5 g/mu): 5 (Grade 5: the growth control rate is greater than or equal to 85%) | Post-emergence herbicidal activity, A. retroflexus (grade) (Amaranthus retroflexus; dosage 10 g/mu): 5 (Grade 5: the growth control rate is greater than or equal to 85%) | Post-emergence herbicidal activity, P. oleracea (grade) (Portulaca oleracea; dosage 2.5 g/mu): 5 (Grade 5: the growth control rate is greater than or equal to 85%) | Post-emergence herbicidal activity, P. oleracea (grade) (Portulaca oleracea; dosage 5 g/mu): 5 (Grade 5: the growth control rate is greater than or equal to 85%) | Post-emergence herbicidal activity, P. oleracea (grade) (Portulaca oleracea; dosage 10 g/mu): 5 (Grade 5: the growth control rate is greater than or equal to 85%) | Post-emergence herbicidal activity, S. viridis (grade) (Setaria viridis; dosage 2.5 g/mu): 2 (Grade 2: the growth control rate is greater than or equal to 20% and less than 40%) | Post-emergence herbicidal activity, S. viridis (grade) (Setaria viridis; dosage 5 g/mu): 3 (Grade 3: the growth control rate is greater than or equal to 40% and less than 60%) | Post-emergence herbicidal activity, S. viridis (grade) (Setaria viridis; dosage 10 g/mu): 4 (Grade 4: the growth control rate is greater than or equal to 60% and less than 85%) | Post-emergence herbicidal activity, E. crusgalli (grade) (Echinochloa crusgalli; dosage 2.5 g/mu): 1 (Grade 1: the growth control rate is greater than or equal to 5% and less than 20%) | Post-emergence herbicidal activity, E. crusgalli (grade) (Echinochloa crusgalli; dosage 5 g/mu): 2 (Grade 2: the growth control rate is greater than or equal to 20% and less than 40%) | Post-emergence herbicidal activity, E. crusgalli (grade) (Echinochloa crusgalli; dosage 10 g/mu): 3 (Grade 3: the growth control rate is greater than or equal to 40% and less than 60%) | Post-emergence herbicidal activity, A. theophrasti (grade) (Abutilon theophrasti; dosage 2.5 g/mu): 5 (Grade 5: the growth control rate is greater than or equal to 85%) | Post-emergence herbicidal activity, A. theophrasti (grade) (Abutilon theophrasti; dosage 5 g/mu): 5 (Grade 5: the growth control rate is greater than or equal to 85%) | Post-emergence herbicidal activity, A. theophrasti (grade) (Abutilon theophrasti; dosage 10 g/mu): 5 (Grade 5: the growth control rate is greater than or equal to 85%)

O=C1C2=C(CCCC2)C(=O)N1c1cc(OCc2nnc(-c3ccc(F)cc3)o2)c(Cl)cc1F [Compound B14]
Post-emergence herbicidal activity, Trifoliumre pensL. (grade) (Trifoliumre pensL.; dosage 2.5 g/mu): 5 (Grade 5: the growth control rate is greater than or equal to 85%) | Post-emergence herbicidal activity, Trifoliumre pensL. (grade) (Trifoliumre pensL.; dosage 5 g/mu): 5 (Grade 5: the growth control rate is greater than or equal to 85%) | Post-emergence herbicidal activity, Trifoliumre pensL. (grade) (Trifoliumre pensL.; dosage 10 g/mu): 5 (Grade 5: the growth control rate is greater than or equal to 85%) | Post-emergence herbicidal activity, A. retroflexus (grade) (Amaranthus retroflexus; dosage 2.5 g/mu): 5 (Grade 5: the growth control rate is greater than or equal to 85%) | Post-emergence herbicidal activity, A. retroflexus (grade) (Amaranthus retroflexus; dosage 5 g/mu): 5 (Grade 5: the growth control rate is greater than or equal to 85%) | Post-emergence herbicidal activity, A. retroflexus (grade) (Amaranthus retroflexus; dosage 10 g/mu): 5 (Grade 5: the growth control rate is greater than or equal to 85%) | Post-emergence herbicidal activity, P. oleracea (grade) (Portulaca oleracea; dosage 2.5 g/mu): 4 (Grade 4: the growth control rate is greater than or equal to 60% and less than 85%) | Post-emergence herbicidal activity, P. oleracea (grade) (Portulaca oleracea; dosage 5 g/mu): 5 (Grade 5: the growth control rate is greater than or equal to 85%) | Post-emergence herbicidal activity, P. oleracea (grade) (Portulaca oleracea; dosage 10 g/mu): 5 (Grade 5: the growth control rate is greater than or equal to 85%) | Post-emergence herbicidal activity, S. viridis (grade) (Setaria viridis; dosage 2.5 g/mu): 2 (Grade 2: the growth control rate is greater than or equal to 20% and less than 40%) | Post-emergence herbicidal activity, S. viridis (grade) (Setaria viridis; dosage 5 g/mu): 3 (Grade 3: the growth control rate is greater than or equal to 40% and less than 60%) | Post-emergence herbicidal activity, S. viridis (grade) (Setaria viridis; dosage 10 g/mu): 4 (Grade 4: the growth control rate is greater than or equal to 60% and less than 85%) | Post-emergence herbicidal activity, E. crusgalli (grade) (Echinochloa crusgalli; dosage 2.5 g/mu): 1 (Grade 1: the growth control rate is greater than or equal to 5% and less than 20%) | Post-emergence herbicidal activity, E. crusgalli (grade) (Echinochloa crusgalli; dosage 5 g/mu): 2 (Grade 2: the growth control rate is greater than or equal to 20% and less than 40%) | Post-emergence herbicidal activity, E. crusgalli (grade) (Echinochloa crusgalli; dosage 10 g/mu): 3 (Grade 3: the growth control rate is greater than or equal to 40% and less than 60%) | Post-emergence herbicidal activity, A. theophrasti (grade) (Abutilon theophrasti; dosage 2.5 g/mu): 4 (Grade 4: the growth control rate is greater than or equal to 60% and less than 85%) | Post-emergence herbicidal activity, A. theophrasti (grade) (Abutilon theophrasti; dosage 5 g/mu): 5 (Grade 5: the growth control rate is greater than or equal to 85%) | Post-emergence herbicidal activity, A. theophrasti (grade) (Abutilon theophrasti; dosage 10 g/mu): 5 (Grade 5: the growth control rate is greater than or equal to 85%)

O=C1C2=C(CCCC2)C(=O)N1c1cc(OCc2nnc(-c3ccc(Cl)cc3)o2)c(Cl)cc1F [Compound B15]
Post-emergence herbicidal activity, Trifoliumre pensL. (grade) (Trifoliumre pensL.; dosage 2.5 g/mu): 5 (Grade 5: the growth control rate is greater than or equal to 85%) | Post-emergence herbicidal activity, Trifoliumre pensL. (grade) (Trifoliumre pensL.; dosage 5 g/mu): 5 (Grade 5: the growth control rate is greater than or equal to 85%) | Post-emergence herbicidal activity, Trifoliumre pensL. (grade) (Trifoliumre pensL.; dosage 10 g/mu): 5 (Grade 5: the growth control rate is greater than or equal to 85%) | Post-emergence herbicidal activity, A. retroflexus (grade) (Amaranthus retroflexus; dosage 2.5 g/mu): 5 (Grade 5: the growth control rate is greater than or equal to 85%) | Post-emergence herbicidal activity, A. retroflexus (grade) (Amaranthus retroflexus; dosage 5 g/mu): 5 (Grade 5: the growth control rate is greater than or equal to 85%) | Post-emergence herbicidal activity, A. retroflexus (grade) (Amaranthus retroflexus; dosage 10 g/mu): 5 (Grade 5: the growth control rate is greater than or equal to 85%) | Post-emergence herbicidal activity, P. oleracea (grade) (Portulaca oleracea; dosage 2.5 g/mu): 5 (Grade 5: the growth control rate is greater than or equal to 85%) | Post-emergence herbicidal activity, P. oleracea (grade) (Portulaca oleracea; dosage 5 g/mu): 5 (Grade 5: the growth control rate is greater than or equal to 85%) | Post-emergence herbicidal activity, P. oleracea (grade) (Portulaca oleracea; dosage 10 g/mu): 5 (Grade 5: the growth control rate is greater than or equal to 85%) | Post-emergence herbicidal activity, S. viridis (grade) (Setaria viridis; dosage 2.5 g/mu): 2 (Grade 2: the growth control rate is greater than or equal to 20% and less than 40%) | Post-emergence herbicidal activity, S. viridis (grade) (Setaria viridis; dosage 5 g/mu): 3 (Grade 3: the growth control rate is greater than or equal to 40% and less than 60%) | Post-emergence herbicidal activity, S. viridis (grade) (Setaria viridis; dosage 10 g/mu): 4 (Grade 4: the growth control rate is greater than or equal to 60% and less than 85%) | Post-emergence herbicidal activity, E. crusgalli (grade) (Echinochloa crusgalli; dosage 2.5 g/mu): 1 (Grade 1: the growth control rate is greater than or equal to 5% and less than 20%) | Post-emergence herbicidal activity, E. crusgalli (grade) (Echinochloa crusgalli; dosage 5 g/mu): 2 (Grade 2: the growth control rate is greater than or equal to 20% and less than 40%) | Post-emergence herbicidal activity, E. crusgalli (grade) (Echinochloa crusgalli; dosage 10 g/mu): 3 (Grade 3: the growth control rate is greater than or equal to 40% and less than 60%) | Post-emergence herbicidal activity, A. theophrasti (grade) (Abutilon theophrasti; dosage 2.5 g/mu): 5 (Grade 5: the growth control rate is greater than or equal to 85%) | Post-emergence herbicidal activity, A. theophrasti (grade) (Abutilon theophrasti; dosage 5 g/mu): 5 (Grade 5: the growth control rate is greater than or equal to 85%) | Post-emergence herbicidal activity, A. theophrasti (grade) (Abutilon theophrasti; dosage 10 g/mu): 5 (Grade 5: the growth control rate is greater than or equal to 85%)
